Data on four compounds can be found in patent publication US8486459B2 (Cremer Oleo GmbH & Co. KG, priority 2011, dated 2013).

Series [1] deals with commensal microflora in the oral cavity. Particulars: in vivo; cited from earlier work.
Series [2] relates to certain microorganisms. Description: Comparative antimicrobial experiments, hydrogen peroxide alone vs enriched extract. Type of series: cell-based. Particulars: 0.05 wt % expressed as H2O2.
Series [3] has as its system Micrococcus luteus. Conditions: in vitro; cited from earlier work.
The subject of series [4] is Staphylococcus aureus. Conditions: in vitro; cited from earlier work.
Series [5] deals with Pseudomonas aeruginosa. Conditions: in vitro; cited from earlier work.
For series [6], the system named is Escherichia coli. Particulars: in vitro; cited from earlier work.
Series [7] has as its system Bacillus subtilis. Conditions: in vitro; cited from earlier work.
Series [8] relates to Candida albicans. Particulars: in vitro; cited from earlier work.
Series [9] relates to L5178Y leukemia lymphoma mouse cells. Conditions: cited from earlier work.
For series [10], the system named is chloroquine-resistant strain K1 of Plasmodium falciparum. Conditions: in vitro; cited from earlier work.

Molecules are shown by their SMILES.

For the compound `[H]/N=C(\N/C(=N/[H])NCCCCCCNC(=N)NC(=N)Nc1ccc(Cl)cc1)Nc1ccc(Cl)cc1` [chlorhexidine], the “effect on the commensal microflora in the oral cavity” value in series [1] is reported as “extremely harmful effect”.

With `OO` [hydrogen peroxide], the “effect on the commensal microflora in the oral cavity” value in [1] is given as “extremely harmful effect”. Further, the antimicrobial effect result in series [2] is given as “did not yield the antimicrobial properties”.

With `COc1cc(O)c(-c2c(C)cc(O)c3c2C(=O)c2cccc(O)c2C3=O)c(O)c1C(C)=O` [knipholone], the antimicrobial effect entry in series [3], in series [4], in series [5], in [6], in series [7] and in [8] was “ineffective” each time.

In the case of `COc1cc(O)c(-c2c(C)cc(O)c3c2C(=O)c2ccc([C@H]4c5cccc(O)c5C(=O)c5c(O)cc(C)c(-c6c(O)cc(OC)c(C(C)=O)c6O)c54)c(O)c2C3=O)c(O)c1C(C)=O` [joziknipholone A], in series [9], the “effect against L5178Y cells” value is recorded as “moderate effect”. In series [10], the “effect against Plasmodium falciparum K1” value is reported as “exhibited an effect”.
